# According to ChEMBL document CHEMBL1201862, “PubChem BioAssay data set” (2004):
#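 Cultured in 96-well plates, cells were exposed to test compound for 48 hours across five concentrations. GI50: concentration for 50% inhibition of growth.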 Active and inactive are the calls of the source. No stated cut-off is given here; in the data, active = GI50 up to about 1.1 µM and inactive = higher.
# Experiments:
# Test in all cases: NCI anticancer screen, dose series, 48 h
# 786-0 = tested on: 786-0
# A498 = tested on: A498
# A549 = tested on: A549
# ACHN = tested on: ACHN
# BT-549 = tested on: BT-549
# CAKI-1 = tested on: CAKI-1
# CCRF-CEM = tested on: CCRF-CEM
# COLO 205 = tested on: COLO 205
# DU-145 = tested on: DU-145
# EKVX = tested on: EKVX
# HCC 2998 = tested on: HCC 2998
# HCT-116 = tested on: HCT-116
# HCT-15 = tested on: HCT-15
# HL-60 = tested on: HL-60
# HOP-62 = tested on: HOP-62
# HOP-92 = tested on: HOP-92
# HT-29 = tested on: HT-29
# Hs-578T = tested on: Hs-578T
# IGROV-1 = tested on: IGROV-1
# K562 = tested on: K562
# KM12 = tested on: KM12
# LOX IMVI = tested on: LOX IMVI
# M14 = tested on: M14
# MCF7 = tested on: MCF7
# MDA-MB-231 = tested on: MDA-MB-231
# MDA-MB-435 = tested on: MDA-MB-435
# MDA-N = tested on: MDA-N
# MOLT-4 = tested on: MOLT-4
# Malme-3M = tested on: Malme-3M
# NCI-H226 = tested on: NCI-H226
# NCI-H23 = tested on: NCI-H23
# NCI-H460 = tested on: NCI-H460
# NCI-H522 = tested on: NCI-H522
# NCI/ADR-RES = tested on: NCI/ADR-RES
# OVCAR-3 = tested on: OVCAR-3
# OVCAR-4 = tested on: OVCAR-4
# OVCAR-5 = tested on: OVCAR-5
# OVCAR-8 = tested on: OVCAR-8
# PC-3 = tested on: PC-3
# RXF 393 = tested on: RXF 393
# SF-268 = tested on: SF-268
# SF-295 = tested on: SF-295
# SF-539 = tested on: SF-539
# SK-MEL-28 = tested on: SK-MEL-28
# SK-MEL-2 = tested on: SK-MEL-2
# SK-MEL-5 = tested on: SK-MEL-5
# SK-OV-3 = tested on: SK-OV-3
# SN12C = tested on: SN12C
# SNB-19 = tested on: SNB-19
# SNB-75 = tested on: SNB-75
# SW-620 = tested on: SW-620
# T47D = tested on: T47D
# TK-10 = tested on: TK-10
# U-251 = tested on: U-251
# UACC-257 = tested on: UACC-257
# UACC-62 = tested on: UACC-62
# UO-31 = tested on: UO-31
# RPMI-8226 = tested on: RPMI-8226
smiles,measurement,setting,value
COc1ccc(-c2oc3c(OC)c(OC)cc(O)c3c(=O)c2OC)cc1,GI50,786-0,> 100000 nM (inactive)
same,GI50,A498,45800 nM (inactive)
same,GI50,A549,> 100000 nM (inactive)
same,GI50,ACHN,> 100000 nM (inactive)
same,GI50,BT-549,> 100000 nM (inactive)
same,GI50,CAKI-1,> 100000 nM (inactive)
same,GI50,CCRF-CEM,> 100000 nM (inactive)
same,GI50,COLO 205,> 100000 nM (inactive)
same,GI50,DU-145,> 100000 nM (inactive)
same,GI50,EKVX,> 100000 nM (inactive)
same,GI50,HCC 2998,> 100000 nM (inactive)
same,GI50,HCT-116,46500 nM (inactive)
same,GI50,HCT-15,> 100000 nM
same,GI50,HL-60,> 100000 nM (inactive)
same,GI50,HOP-62,55800 nM (inactive)
same,GI50,HOP-92,42800 nM (inactive)
same,GI50,HT-29,> 100000 nM (inactive)
same,GI50,Hs-578T,58300 nM (inactive)
same,GI50,IGROV-1,> 100000 nM (inactive)
same,GI50,K562,> 100000 nM (inactive)
same,GI50,KM12,> 100000 nM (inactive)
same,GI50,LOX IMVI,65000 nM (inactive)
same,GI50,M14,> 100000 nM (inactive)
same,GI50,MCF7,> 100000 nM (inactive)
same,GI50,MDA-MB-231,69200 nM (inactive)
same,GI50,MDA-MB-435,> 100000 nM (inactive)
same,GI50,MDA-N,> 100000 nM (inactive)
same,GI50,MOLT-4,> 100000 nM (inactive)
same,GI50,Malme-3M,> 100000 nM (inactive)
same,GI50,NCI-H226,> 100000 nM (inactive)
same,GI50,NCI-H23,> 100000 nM (inactive)
same,GI50,NCI-H460,> 100000 nM (inactive)
same,GI50,NCI-H522,54800 nM (inactive)
same,GI50,NCI/ADR-RES,> 100000 nM (inactive)
same,GI50,OVCAR-3,> 100000 nM (inactive)
same,GI50,OVCAR-4,> 100000 nM (inactive)
same,GI50,OVCAR-5,> 100000 nM (inactive)
same,GI50,OVCAR-8,> 100000 nM (inactive)
same,GI50,PC-3,> 10000 nM (inactive)
same,GI50,RXF 393,> 100000 nM (inactive)
same,GI50,SF-268,> 100000 nM (inactive)
same,GI50,SF-295,> 100000 nM (inactive)
same,GI50,SF-539,28800 nM (inactive)
same,GI50,SK-MEL-28,> 100000 nM (inactive)
same,GI50,SK-MEL-2,> 100000 nM (inactive)
same,GI50,SK-MEL-5,91600 nM (inactive)
same,GI50,SK-OV-3,36500 nM (inactive)
same,GI50,SN12C,> 100000 nM (inactive)
same,GI50,SNB-19,> 100000 nM (inactive)
same,GI50,SNB-75,> 10000 nM (inactive)
same,GI50,SW-620,> 100000 nM (inactive)
same,GI50,T47D,> 100000 nM (inactive)
same,GI50,TK-10,> 100000 nM (inactive)
same,GI50,U-251,70800 nM (inactive)
same,GI50,UACC-257,> 100000 nM (inactive)
same,GI50,UACC-62,> 100000 nM (inactive)
same,GI50,UO-31,> 100000 nM (inactive)
CN(C)CCNc1nc2ccccc2c2c1C(=O)c1ccccc1-2,GI50,786-0,132 nM (active)
same,GI50,A498,163 nM (active)
same,GI50,A549,58.1 nM (active)
same,GI50,ACHN,83.4 nM (active)
same,GI50,BT-549,914 nM (active)
same,GI50,CAKI-1,124 nM (active)
same,GI50,CCRF-CEM,92.3 nM (active)
same,GI50,COLO 205,303 nM (active)
same,GI50,DU-145,149 nM (active)
same,GI50,EKVX,361 nM (active)
same,GI50,HCC 2998,134 nM (active)
same,GI50,HCT-116,49 nM (active)
same,GI50,HCT-15,150 nM
same,GI50,HL-60,< 43.2 nM (active)
same,GI50,HOP-62,233 nM (active)
same,GI50,HOP-92,327 nM (active)
same,GI50,HT-29,191 nM (active)
same,GI50,Hs-578T,2100 nM (inactive)
same,GI50,IGROV-1,94.2 nM (active)
same,GI50,K562,163 nM (active)
same,GI50,KM12,326 nM (active)
same,GI50,LOX IMVI,147 nM (active)
same,GI50,M14,316 nM (active)
same,GI50,MCF7,50.8 nM (active)
same,GI50,MDA-MB-231,542 nM (active)
same,GI50,MDA-MB-435,288 nM (active)
same,GI50,MDA-N,318 nM (active)
same,GI50,MOLT-4,10 nM (active)
same,GI50,Malme-3M,251 nM (active)
same,GI50,NCI-H226,205 nM (active)
same,GI50,NCI-H23,316 nM (active)
same,GI50,NCI-H460,< 19.4 nM (active)
same,GI50,NCI-H522,211 nM (active)
same,GI50,NCI/ADR-RES,267 nM (active)
same,GI50,OVCAR-3,556 nM (active)
same,GI50,OVCAR-4,338 nM (active)
same,GI50,OVCAR-5,367 nM (active)
same,GI50,OVCAR-8,195 nM (active)
same,GI50,PC-3,270 nM (active)
same,GI50,RPMI-8226,123 nM (active)
same,GI50,RXF 393,180 nM (active)
same,GI50,SF-268,279 nM (active)
same,GI50,SF-295,225 nM (active)
same,GI50,SF-539,382 nM (active)
same,GI50,SK-MEL-28,471 nM (active)
same,GI50,SK-MEL-2,368 nM (active)
same,GI50,SK-MEL-5,301 nM (active)
same,GI50,SK-OV-3,703 nM (active)
same,GI50,SN12C,56.5 nM (active)
same,GI50,SNB-19,470 nM (active)
same,GI50,SNB-75,564 nM (active)
same,GI50,SW-620,137 nM (active)
same,GI50,T47D,281 nM (active)
same,GI50,TK-10,513 nM (active)
same,GI50,U-251,219 nM (active)
same,GI50,UACC-257,538 nM (active)
same,GI50,UACC-62,84.9 nM (active)
same,GI50,UO-31,150 nM (active)
